Data on five compounds can be found in PMC7882696, “Co-production of Xylooligosaccharides and Xylose From Poplar Sawdust by Recombinant Endo-1,4-β-Xylanase and β-Xylosidase Mixture Hydrolysis” (Frontiers in Bioengineering and Biotechnology, 2021).

Common to all, as to assay type: biochemical, Dictyoglomus thermophilum
For assay [1], the system named is T1, Xln-DT.
T1 construct: recombinant, pET-28a-xln-DT in E. coli BL21(DE3), heat treatment and Ni-NTA; ~55 kDa on SDS-PAGE
The experiment in a line: pNP release at […] nm, Michaelis-Menten. To be noted: 50 mM sodium phosphate pH 6.0, optimal temperature.

Assay [2] relates to T1, Xln-DT. Description: glucose release, Michaelis-Menten. To be noted: 0.2-10 g/L substrate. An excerpt:
glucose release, Michaelis-Menten on Xln-DT

For assay [3], the system named is T1, Xln-DT. The experiment in a line: xylose release, Michaelis-Menten. To be noted: 0.2-10 g/L substrate. The source says:
xylose release, Michaelis-Menten on Xln-DT

With `O=[N+]([O-])c1ccc(O[C@@H]2OC[C@@H](O)[C@H](O)[C@H]2O)cc1` [pNPX], the Km in the assay on Xln-DT [1] is 1.66 mM.
Same read-out and setting: the same measure for `O=[N+]([O-])c1ccc(O[C@@H]2O[C@H](CO)[C@@H](O)[C@H](O)[C@H]2O)cc1` [pNPG]: 3.67 mM.
Consider `OC[C@H]1O[C@@H](O[C@H]2[C@H](O)[C@@H](O)C(O)O[C@@H]2CO)[C@H](O)[C@@H](O)[C@@H]1O` (some centres unmarked) [Cellobiose], for which the Km in the assay on Xln-DT [2] was 11 mM.
On to `O=[N+]([O-])c1ccc(O[C@@H]2O[C@@H](CO)[C@H](O)[C@H]2O)cc1` [pNPA], for which the Km with Xln-DT [1] was 1.02 mM.
`OC1OC[C@@H](O[C@@H]2OC[C@@H](O)[C@H](O)[C@H]2O)[C@H](O)[C@H]1O` (some centres unmarked) [X2, Xylobiose]: in the assay with Xln-DT [3], the Km stood at 930 µM.

In general, Km refers to the substrate concentration at which the rate is half of its maximum.
